23 molecules from US20250136577A1, “HETEROCYCLIC DERIVATIVES AS MALT1 INHIBITORS” (C4X Discovery Limited, priority 2022, published 2025) can be followed below.

One assay has as its target FL hMALT1 enzyme (Homo sapiens (Human), UniProt Q9UDY8). Description: MALT1 Protease Assay 2 (Assay 2), higher sensitivity, cleavage of fluorogenic tetrapeptide substrate. Conditions: FL hMALT1 1-10 nM, Ac-LVSR-AMC 100 μM, 0.7 M sodium citrate, 30 min preincubation, 60 min read. The class given is biochemical. The method, then:
MALT1 Protease Assay 2 (Assay 2)
(§1) MALT1 protease activity was assessed in vitro by measuring the cleavage of a fluorogenic tetrapeptide substrate.
For a higher sensitivity assay, commercially available FL hMALT1 enzyme (Abcam, 1-10 nM) was incubated with substrate (Ac-LVSR-AMC, 100 μM) in reaction buffer comprising 50 mM HEPES (pH7.0), 25 mM KCl, 0.1% (v/v) CHAPS, 1 mM TCEP and 0.7 M sodium citrate.
(§2) Test compounds dissolved in DMSO were dispensed into assay plates (384-well, black, shallow ProxiPlates). 7 μl enzyme solution was added and incubated at room temperature for 30 minutes to allow compound binding to occur. 2 μl substrate solution was then added and the fluorescence (excitation 360 nm, emission 460 nm) read every 15 minutes using a suitable plate reader. Final assay DMSO concentration was 1%. Linearity over 60 minutes was confirmed, and assay signal was calculated by subtracting raw counts at time 0 from those at 60 minutes. % inhibition was calculated for each well, using no enzyme for 100% inhibition controls and no compound for 0% inhibition controls. IC50 values were calculated using GraphPad Prism using a 4-parameter non-linear regression curve fit.

Assay [1] addresses MALT1-GS-Ub (6-His-hMALT-1 residues 339-715 fused to ubiquitin) (Homo sapiens (Human), UniProt Q9UDY8). The assay can be described thus: MALT1 Protease Assay 1 (Assay 1), cleavage of fluorogenic tetrapeptide substrate. In kind it is biochemical. Conditions: MALT1-GS-Ub 300-600 nM, Ac-LVSR-AMC 100 μM, 30 min preincubation, 60 min read. The method, then:
MALT1 Protease Assay 1 (Assay 1)
as §1
A protein (MALT1-GS-Ub) comprising 6-His-hMALT-1 (residues 339-715), fused to ubiquitin with an 8× GGS linker, was expressed in E. coli, and purified using chitin resin to remove contaminants followed by affinity chromatography purification and size-exclusion chromatography, according to standard protocols.
Briefly, MALT1-GS-Ub (300-600 nM) was incubated with substrate (Ac-LVSR-AMC, 100 μM) in reaction buffer comprising 50 mM HEPES (pH7.0), 25 mM KCl, 0.1% (v/v) CHAPS and 1 mM TCEP.
as §2

MALT1-GS-Ub (6-His-hMALT-1 residues 339-715 fused to ubiquitin), sequence (Q9UDY8 other isoform, or with tags, fused parts or gaps): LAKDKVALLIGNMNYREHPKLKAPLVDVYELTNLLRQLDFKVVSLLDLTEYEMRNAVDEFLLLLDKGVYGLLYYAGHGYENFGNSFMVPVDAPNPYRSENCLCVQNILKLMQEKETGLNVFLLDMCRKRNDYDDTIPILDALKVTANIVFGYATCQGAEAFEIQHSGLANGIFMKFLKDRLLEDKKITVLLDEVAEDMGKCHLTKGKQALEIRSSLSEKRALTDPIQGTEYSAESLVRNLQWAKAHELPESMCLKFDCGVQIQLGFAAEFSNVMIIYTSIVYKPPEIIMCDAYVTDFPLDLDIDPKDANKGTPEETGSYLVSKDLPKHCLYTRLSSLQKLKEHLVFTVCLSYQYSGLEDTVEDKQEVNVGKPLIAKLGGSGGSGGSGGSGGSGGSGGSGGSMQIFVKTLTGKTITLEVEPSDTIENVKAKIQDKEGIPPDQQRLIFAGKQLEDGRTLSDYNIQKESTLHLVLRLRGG
FL hMALT1 enzyme, sequence (Q9UDY8 whole entry): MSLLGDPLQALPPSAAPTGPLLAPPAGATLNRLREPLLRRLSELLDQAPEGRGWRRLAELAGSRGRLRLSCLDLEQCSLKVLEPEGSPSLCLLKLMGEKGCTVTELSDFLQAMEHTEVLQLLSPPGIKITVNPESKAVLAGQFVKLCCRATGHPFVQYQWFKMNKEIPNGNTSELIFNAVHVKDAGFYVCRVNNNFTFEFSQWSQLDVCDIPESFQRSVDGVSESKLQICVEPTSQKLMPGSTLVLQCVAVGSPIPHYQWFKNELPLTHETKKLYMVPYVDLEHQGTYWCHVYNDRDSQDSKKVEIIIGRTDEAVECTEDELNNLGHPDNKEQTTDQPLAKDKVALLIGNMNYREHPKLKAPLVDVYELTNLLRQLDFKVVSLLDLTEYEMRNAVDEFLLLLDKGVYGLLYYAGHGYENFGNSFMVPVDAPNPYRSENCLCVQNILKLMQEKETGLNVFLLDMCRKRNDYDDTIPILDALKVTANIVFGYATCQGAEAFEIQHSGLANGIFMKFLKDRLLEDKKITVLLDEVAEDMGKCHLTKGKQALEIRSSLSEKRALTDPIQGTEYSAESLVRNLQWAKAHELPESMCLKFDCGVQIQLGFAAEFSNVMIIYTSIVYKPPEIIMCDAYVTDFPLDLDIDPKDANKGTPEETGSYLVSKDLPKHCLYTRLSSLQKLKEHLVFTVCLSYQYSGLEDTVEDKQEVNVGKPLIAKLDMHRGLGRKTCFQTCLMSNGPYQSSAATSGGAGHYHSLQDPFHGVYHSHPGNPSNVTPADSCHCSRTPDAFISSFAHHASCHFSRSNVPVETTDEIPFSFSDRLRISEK

By IC50 is commonly meant the point on the concentration scale where inhibition reaches its midpoint. Low readings indicate greater potency, high ones weaker potency. For `O=C(Nc1cnc(-n2nccn2)c(C(F)(F)F)c1)N1CCOc2c(Br)cccc21` [Example 4, N-(6-(2H-1,2,3-Triazol-2-yl)-5-(trifluoromethyl)pyridin-3-yl)-8-bromo-2,3-dihydro-4H-benzo[b][1,4]oxazine-4-carboxamide], the IC50 against FL hMALT1 enzyme stood at 400 nM; in assay [1] it was 2800 nM.

For `CC1CN(C(=O)Nc2cnc(-n3nccn3)c(C(F)(F)F)c2)c2cccc(Br)c2O1` (stereo not shown) [Example 5, N-(6-(2H-1,2,3-Triazol-2-yl)-5-(trifluoromethyl)pyridin-3-yl)-8-bromo-2-methyl-2,3-dihydro-4H-benzo[b][1,4]oxazine-4-carboxamide], the IC50 was determined as 120 nM against FL hMALT1 enzyme and 3300 nM in assay [1].

For `N#Cc1cccc2c1CCCN2C(=O)Nc1cnc(-n2nccn2)c(Cl)c1` [Example 7, N-(5-Chloro-6-(2H-1,2,3-triazol-2-yl)pyridin-3-yl)-5-cyano-3,4-dihydroquinoline-1 (2H)-carboxamide], the results for the IC50 (against FL hMALT1 enzyme; in assay [1]) were 1200 nM and 6900 nM, respectively.

Take `O=C(Nc1cnc(-n2nccn2)c(C(F)(F)F)c1)N1CCCc2c(-c3cccnc3)cccc21` [Example 8, N-(6-(2H-1,2,3-Triazol-2-yl)-5-(trifluoromethyl)pyridin-3-yl)-5-(pyridin-3-yl)-3,4-dihydroquinoline-1 (2H)-carboxamide]: the IC50 at FL hMALT1 enzyme is more than 10000 nM; in assay [1], 9800 nM.

Turning to `O=C(Nc1cnc(-n2nccn2)c(C(F)(F)F)c1)N1CCCc2c(-c3ncco3)cccc21` [Example 9, N-(6-(2H-1,2,3-Triazol-2-yl)-5-(trifluoromethyl)pyridin-3-yl)-5-(oxazol-2-yl)-3,4-dihydroquinoline-1 (2H)-carboxamide], the IC50 at FL hMALT1 enzyme turned out to be 2000 nM; in assay [1], 4600 nM.

For the molecule `O=C(Nc1cnc(-n2nccn2)c(C(F)(F)F)c1)N1CCCc2c(-c3nccs3)cccc21` [Example 10, N-(6-(2H-1,2,3-Triazol-2-yl)-5-(trifluoromethyl)pyridin-3-yl)-5-(thiazol-2-yl)-3,4-dihydroquinoline-1 (2H)-carboxamide], the IC50 stood at 1000 nM at FL hMALT1 enzyme and 1500 nM in assay [1].

On to `O=C(Nc1cnc(-n2nccn2)c(C(F)(F)F)c1)N1CCCc2c(-c3ccccc3)cccc21` [Example 12, N-(6-(2H-1,2,3-Triazol-2-yl)-5-(trifluoromethyl)pyridin-3-yl)-5-phenyl-3,4-dihydroquinoline-1 (2H)-carboxamide], for which the IC50 was 650 nM against FL hMALT1 enzyme and 2300 nM in assay [1].

For the molecule `CC1(C)CN(C(=O)Nc2cnc(-n3nccn3)c(Cl)c2)c2cccc(Br)c2O1` [Example 13, 8-Bromo-N-(5-chloro-6-(2H-1,2,3-triazol-2-yl)pyridin-3-yl)-2,2-dimethyl-2,3-dihydro-4H-benzo[b][1,4]oxazine-4-carboxamide], the IC50 (against FL hMALT1 enzyme; in assay [1]) was 1300 nM in each case.

Take `O=C(Nc1cnc(-n2nccn2)c(C(F)(F)F)c1)N1CCCc2c(-c3nncs3)cccc21` [Example 14, N-(6-(2H-1,2,3-triazol-2-yl)-5-(trifluoromethyl)pyridin-3-yl)-5-(1,3,4-thiadiazol-2-yl)-3,4-dihydroquinoline-1 (2H)-carboxamide]: the IC50 on FL hMALT1 enzyme was 8200 nM; in assay [1], 8500 nM.

For `CC1(C)Cc2c(Br)cccc2N(C(=O)Nc2cnc(-n3nccn3)c(Cl)c2)C1` [Example 15, 5-Bromo-N-(5-chloro-6-(2H-1,2,3-triazol-2-yl)pyridin-3-yl)-3,3-dimethyl-3,4-dihydroquinoline-1 (2H)-carboxamide], the IC50 was 440 nM at FL hMALT1 enzyme and 1300 nM in assay [1].

Regarding `CN1CCN(C(=O)Nc2cnc(-n3nccn3)c(Cl)c2)c2cccc(Br)c21` [Example 16, 5-Bromo-N-(5-chloro-6-(2H-1,2,3-triazol-2-yl)pyridin-3-yl)-4-methyl-3,4-dihydroquinoxaline-1 (2H)-carboxamide], the IC50 against FL hMALT1 enzyme amounted to 900 nM; in assay [1], 2500 nM.

As for `O=C(Nc1cnc(-n2nccn2)c(Cl)c1)N1CCCc2c(Br)cncc21` [Example 17, 5-Bromo-N-(5-chloro-6-(2H-1,2,3-triazol-2-yl)pyridin-3-yl)-3,4-dihydro-1,7-naphthyridine-1 (2H)-carboxamide], the IC50 against FL hMALT1 enzyme stood at 1500 nM; in assay [1], 500 nM.

Regarding `C#CC1CN(C(=O)Nc2cnc(-n3nccn3)c(Cl)c2)c2cccc(Br)c2O1` (stereo not shown) [Example 20, 8-Bromo-N-(5-chloro-6-(2H-1,2,3-triazol-2-yl)pyridin-3-yl)-2-ethynyl-2,3-dihydro-4H-benzo[b][1,4]oxazine-4-carboxamide], the half-maximal inhibitory concentration (IC50) against FL hMALT1 enzyme is 590 nM; in assay [1], 3300 nM.

For `O=C(Nc1cnc(-n2nccn2)c(Cl)c1)N1CCCc2c(C3CC3)cncc21` [Example 22, N-(5-Chloro-6-(2H-1,2,3-triazol-2-yl)pyridin-3-yl)-5-cyclopropyl-3,4-dihydro-1,7-naphthyridine-1 (2H)-carboxamide], the values for the IC50 (against FL hMALT1 enzyme; in assay [1]) were 4700 nM and 4000 nM, respectively.

Take `CC1(C)CN(C(=O)Nc2cnc(-n3nccn3)c(Cl)c2)c2cncc(C3CC3)c2O1` [Example 24, N-(5-Chloro-6-(2H-1,2,3-triazol-2-yl)pyridin-3-yl)-8-cyclopropyl-2,2-dimethyl-2,3-dihydro-4H-pyrido[4,3-b][1,4]oxazine-4-carboxamide]: the values for the half-inhibitory concentration (IC50) (on FL hMALT1 enzyme; in assay [1]) were 340 nM and 2500 nM, respectively.

Regarding `O=C(Nc1cnc(-n2nccn2)c(Cl)c1)N1C[C@@H]2CCCN2c2c(Br)cncc21` [Example 25, (S)-1-Bromo-N-(5-chloro-6-(2H-1,2,3-triazol-2-yl)pyridin-3-yl)-6a,7,8,9-tetrahydropyrido[3,4-e] pyrrolo[1,2-a]pyrazine-5 (6H)-carboxamide], the IC50 on FL hMALT1 enzyme is 230 nM; in assay [1], 1060 nM.

As to `O=C(Nc1cnc(-n2nccn2)c(Cl)c1)N1CC2(CCOC2)Oc2c(Br)cncc21` (stereo not shown) [Example 27, 8′—Bromo-N-(5-chloro-6-(2H-1,2,3-triazol-2-yl)pyridin-3-yl)-4,5-dihydro-2H-spiro [furan-3,2′-pyrido[4,3-b][1,4]oxazine]-4′ (3′H)-carboxamide], the IC50 was determined as 900 nM against FL hMALT1 enzyme and 5000 nM in assay [1].

For the molecule `O=C(Nc1cnc(-n2nccn2)c(Cl)c1)N1CC2CCCCN2c2c(Br)cncc21` (stereo not shown) [Example 28, 1-Bromo-N-(5-chloro-6-(2H-1,2,3-triazol-2-yl)pyridin-3-yl)-6,6a,7,8,9,10-hexahydro-5H-dipyrido[1,2-a: 3′,4′-e] pyrazine-5-carboxamide], the IC50 against FL hMALT1 enzyme was determined as 1100 nM; in assay [1], 7300 nM.

For `CN1CCN(C(=O)Nc2cnc(-n3nccn3)c(Cl)c2)c2cncc(Br)c21` [Example 29, 8-Bromo-N-(5-chloro-6-(2H-1,2,3-triazol-2-yl)pyridin-3-yl)-1-methyl-2,3-dihydropyrido[3,4-b]pyrazine-4 (1H)-carboxamide], the IC50 at FL hMALT1 enzyme is more than 3000 nM; in assay [1], 3800 nM.

Consider `CN1c2c(Br)cncc2N(C(=O)Nc2cnc(-n3nccn3)c(Cl)c2)CC1(C)C` [Example 31, 8-Bromo-N-(5-chloro-6-(2H-1,2,3-triazol-2-yl)pyridin-3-yl)-1,2,2-trimethyl-2,3-dihydropyrido[3,4-b]pyrazine-4 (1H)-carboxamide], for which the IC50 against FL hMALT1 enzyme is 260 nM; in assay [1], 3000 nM.

Turning to `O=C(Nc1cnc(-n2nccn2)c(Cl)c1)N1CCN(C2CCOCC2)c2c(Br)cncc21` [Example 33, 8-Bromo-N-(5-chloro-6-(2H-1,2,3-triazol-2-yl)pyridin-3-yl)-1-(tetrahydro-2H-pyran-4-yl)-2,3-dihydropyrido[3,4-b]pyrazine-4 (1H)-carboxamide], the IC50 on FL hMALT1 enzyme was 1500 nM; in assay [1], 7600 nM.

As to `O=C(Nc1cnc(-n2nccn2)c(Cl)c1)N1CC(C(F)(F)F)Nc2c(Br)cncc21` (stereo not shown) [Example 37, 8-Bromo-N-(5-chloro-6-(2H-1,2,3-triazol-2-yl)pyridin-3-yl)-2-(trifluoromethyl)-2,3-dihydropyrido[3,4-b]pyrazine-4 (1H)-carboxamide], the IC50 against FL hMALT1 enzyme was found to be 540 nM; in assay [1], 3900 nM.

Regarding `O=C(Nc1cnc(-n2nccn2)c(Cl)c1)N1CC(C(F)(F)F)Oc2c(Br)cncc21` (stereo not shown) [Example 38, 8-Bromo-N-(5-chloro-6-(2H-1,2,3-triazol-2-yl)pyridin-3-yl)-2-(trifluoromethyl)-2,3-dihydro-4H-pyrido[4,3-b][1,4]oxazine-4-carboxamide], the concentration for half-maximal inhibition (IC50) against FL hMALT1 enzyme is 120 nM; in assay [1] it was 730 nM.
